Data reported in ChEMBL document CHEMBL2384978, “The opposite effect of isotype-selective monoamine oxidase inhibitors on adipogenesis in human bone marrow mesenchymal stem cells” (2013).
The source made the active and inactive calls. The rule behind the calls is not given here.

Key:
Assay type in all cases: functional
[1] = Induction of adipogenesis in human bone marrow MSC assessed as formation of intracellular lipid droplets at 10 uM after 15 days by oil red O staining in IDX condition relative to control
MSC [2] = test: Induction of adipogenesis in human bone marrow MSC assessed as adiponectin production at 30 uM after 14 days by ELISA relative to control
MSC [3] = test: Induction of SSAO-mediated adipogenesis in human bone marrow MSC assessed as adiponectin level at 0.1 to 1 mM after 14 days by ELISA
MSC [4] = test: Induction of adipogenesis in human bone marrow MSC assessed as adiponectin up-regulation by RT-PCR analysis
MSC [5] = test: Induction of adipogenesis in human bone marrow MSC assessed as PPARgamma up-regulation by RT-PCR analysis
MSC [6] = test: Induction of adipogenesis in human bone marrow MSC assessed as MAO-A up-regulation by RT-PCR analysis
MSC [7] = test: Induction of adipogenesis in human bone marrow MSC assessed as MAO-B up-regulation by RT-PCR analysis
MSC [8] = test: Induction of adipogenesis in human bone marrow MSC assessed as AOC3 up-regulation by RT-PCR analysis
MSC [9] = test: Induction of adipogenesis in human bone marrow MSC assessed as AOC2 up-regulation by RT-PCR analysis
MSC [10] = test: Induction of adipogenesis in human bone marrow MSC assessed as adiponectin production after 14 days by ELISA in IDX condition

In the case of `NCCNC(=O)c1ncsc1-c1cccc(F)c1`, the Activity [1] is reported as 49% and the Activity (MSC [2]) is reported as “Active”.

With `NNC(N)=O` the Activity (MSC [3]) was “inactive”.

In the case of `N[C@@H]1C[C@H]1c1ccccc1.N[C@H]1C[C@@H]1c1ccccc1` (racemic) [TRANYLCYPROMINE], the Activity [1] is reported as 79%.

For `COc1ccc(Cl)cc1C(=O)NCCc1ccc(S(=O)(=O)NC(=O)NC2CCCCC2)cc1` [GLYBURIDE], the Activity [1] was 134%, the Activity (MSC [4]) was “Active” and the Activity (MSC [5]) was “Active”. For the same compound, the Activity (MSC [6]) was “Active”, the Activity (MSC [7]) was “Active” and the Activity (MSC [8]) was “Active”. The Activity (MSC [9]) was “Active”.

With `O=C(NCCN1CCOCC1)c1ccc(Cl)cc1` [MOCLOBEMIDE] the Activity [1] was 146% and the Activity (MSC [10]) was “Dose-dependent effect”.

In the case of `C#CCN(C)Cc1ccccc1` [PARGYLINE], the Activity [1] is reported as 54% and the Activity (MSC [2]) is reported as “Active”.

Compound `NNCCc1ccccc1` [PHENELZINE] has an Activity [1] of 85%.

In the case of `C#CCN(C)[C@H](C)Cc1ccccc1` [SELEGILINE], the Activity [1] is reported as 105% and the Activity (MSC [10]) is reported as “Dose-dependent effect”.
